Reference: patent US20240299486A1, “ADDRESSING INJECTION SITE REACTIONS ASSOCIATED WITH THE ADMINISTRATION OF ELAMIPRETIDE” (STEALTH BIOTHERAPEUTICS INC., priority 2022, published 2024)

Key:
[1] = system: control (non-MRGPRX2 expressing) Chem-1 cells; conditions: parent Chem-1 cells, Fluo-4
Method: MRGPRX2 expressing and control (non-MRGPRX2 expressing) Chem-1 cells lines were obtained from Discovery Services, EuroFins. Cells were cultured in Dulbecco's Modified Eagle Medium (DMEM) high glucose medium (4.5 g/L) with 10% fetal bovine serum (FBS), non-essential amino acids, and N-2-hydroxyethylpiperazine-N′-2-ethanesulfonic acid (HEPES) buffer (pH 7.0-7.6). Geneticin (G418) was used for selection of MRGPRX2-expressing Chem-1 cells. Cells were maintained at 37° C. at 5% CO2. Cells were seeded to a glass bottom 96-well plates at a density of 50,000 per well (Cellvis). Cells were loaded with Fluo-4 AM for 30 minutes at 37° C. at a concentration of 2.5 μM. Cells were washed once with Dulbecco's phosphate buffered saline (DPBS). Cells were rested at room temperature for 30 minutes before use and washed with DPBS. Cells were resuspended in 50 μl phosphate buffered saline (PBS) with calcium and magnesium. […] Plates were read immediately with a Biotek plate reader. Readings were taken every 6 seconds for 2 minutes.

rats = conditions: subcutaneous administration, long term toxicology studies
[2] = system: wild type and Mrgprb2 knockout mice
Method: Adult mice up to 8 months of age were anesthetized with an intraperitoneal injection of ketamine/xylazine. Fifteen (15) minutes after induction of anesthesia, mice were injected intravenously with 50 μL of 12.5 mg/mL Evans Blue in saline. Five (5) minutes later, 5 μL of 0.5 mg/mL elamipretide (in saline) was administered by injection in one paw and saline was administered in the other paw. Fifteen (15) minutes later, mice were sacrificed by decapitation. Paw tissue was collected, dried for 24 hours at 50° C., and weighed. Evans Blue was extracted by a 24-hour incubation in formamide at 50° C., and the optical density (O.D.) was read at 600 nm (the maximum Evans Blue absorbance) and 740 nm (the minimum specific Evans Blue absorbance) using a spectrophotometer. The value at 740 nm, reflecting Evans Blue-independent O.D., was subtracted from the value at 600 nm to attain the final readout.
Injection site reactions were characterized by local inflammation and edema. The standard assay in mice to monitor local skin inflammation is the Evans Blue assay. In conditions of local skin inflammation, blood vessels become more permeable and components of blood leak out into the local tissue. Evans Blue is a dye that binds to a protein called albumin in the blood and leaks out with the albumin in inflammatory conditions. In this assay, mice were injected intravenously with Evans Blue and the amount of Evans Blue leakage in a tissue was a readout of the extent of inflammation. […] This is preferable to other skin sites in mice, as they are extremely thin, compared to human skin, and injected fluids almost immediately leave the sites of injection.

non-human primates = conditions: long term toxicology studies
healthy subjects = test: Phase 1 crossover study: self-assessed injection site reactions; format: in vivo, human; conditions: 60 mg SQ elamipretide with or without the intervention, across all timepoints, all participants, n = 80
Method: • This Phase 1, open-label, 6-arm crossover study included 10 healthy subjects ≥18 and ≤65 years of age. • All subjects received 60 mg of SQ elamipretide to alternating quadrants of the abdomen on each of 6 occasions (FIG. 3), with or without the interventions listed in Table 2. • For each treatment arm, ISR clinical and self-assessments were performed pre-elamipretide administration and at 0.5, 1, 2, 4, 6, 12, 24, and 48 hours after each elamipretide dose. • Blood samples for plasma concentrations of elamipretide and its metabolites were also collected pre-dose and at 0.25, 0.5, 1, 2, 4, and 6 hours post-elamipretide dose. • Primary endpoints consisted of comparisons of the grading from the clinical assessments and the self-assessments of each ISR parameter following administration of elamipretide with each separate intervention versus that of elamipretide alone. • Secondary endpoints consisted of comparison of various pharmacokinetic (PK) parameters and adverse events following administration of elamipretide with each separate intervention versus that of elamipretide alone.
After the screening period (up to 28 days) in this phase 1, open-label, 4-week, 6-part, crossover study, all eligible subjects received 60 mg (0.75 mL) of SC elamipretide to alternating quadrants of the abdomen on each of 6 occasions, with or without potential ISR interventions. The first treatment arm (Arm 1) commenced on Day 1 with administration of elamipretide only, followed by the remaining treatment arms (Arms 2-6) with the following potential mitigations: mometasone furoate, 0.1% ointment, applied once under a hydrocolloid occlusive dressing (DuoDERM Extra Thin) 7 days prior to elamipretide administration (Arm 2); ice application at the elamipretide injection site 5 minutes pre- and post-drug administration (Arm 3); tacrolimus 0.1% ointment applied 15 minutes pre-drug dosing (Arm 4); doxepin 5% cream applied 15 minutes pre-elamipretide administration (Arm 5); and diphenhydramine 50 mg orally taken 2 hours prior to administration (Arm 6). For each treatment arm, blood samples for plasma concentrations of elamipretide and its metabolites were collected pre-dose and at 0.25, 0.5, 1, 2, 4, and 6 hours post-elamipretide dose. Vital signs were recorded pre-dose and at 0.5 and 6 hours post-elamipretide administration. ISR clinical and self-assessments were performed pre-elamipretide administration and at 0.5, 1, 2, 4, 6, 12, 24, and 48 hours after each elamipretide dose. Injection sites were photographed at 0.5, 1, 2, 4, and 12 hours post-elamipretide dose.
The primary endpoints of this study were comprised of the following efficacy measures: clinical assessments and subject self-assessments. Specifically, the primary endpoints consisted of comparisons of the grading of each ISR parameter following administration of elamipretide with each separate intervention versus the grading of each ISR parameter following administration of elamipretide alone. For clinical assessments, the clinical staff used a standard procedure adapted from the Division of Aids Table for Grading the Severity of Adult and Pediatric Adverse Events to score pain, erythema, induration, and pruritus using a 4-point scale based on severity (0=None, 1=Mild, 2=Moderate, 3=Severe, 4=Potentially Life Threatening). The self-assessments were based on a questionnaire to determine how bothered the patient was following each injection of elamipretide and included the following parameters: pain, burning sensation, cold sensation, itching, redness, swelling, and bruising.
All statistical analyses were performed using SAS GRID Linux/SAS Studio (Version 9.4, or higher). PK parameters for elamipretide and its metabolites, M1 and M2, were summarized using descriptive statistics.

[3] = SQ elamipretide, multiple-dose trials >8 days, n = 376

Cc1cc(O)cc(C)c1C[C@H](NC(=O)[C@H](N)CCCNC(=N)N)C(=O)N[C@@H](CCCCN)C(=O)N[C@@H](Cc1ccccc1)C(N)=O (stereo in doubt) [Elamipretide, H-D-Arg-2′,6′Dmt-Lys-Phe-NH2]
effect on cells lacking the MRGPRX2 receptor (calcium mobilization) [1]: no effect | injection site reactions (rats): some being severe at the higher dose levels | Injection site bruising, (%) of Subjects (subjects; [3]): (12.0) % | Injection site bruising, Number of Subjects (subjects; [3]): 45 | Injection site erythema, (%) of Subjects (subjects; [3]): (47.3) % | Injection site erythema, Number of Subjects (subjects; [3]): 178 | Injection site haemorrhage, (%) of Subjects (subjects; [3]): (5.9) % | Injection site haemorrhage, Number of Subjects (subjects; [3]): 22 | Injection site induration, (%) of Subjects (subjects; [3]): (19.4) % | Injection site induration, Number of Subjects (subjects; [3]): 73 | Injection site mass, (%) of Subjects (subjects; [3]): (5.6) % | Injection site mass, Number of Subjects (subjects; [3]): 21 | Injection site pain, (%) of Subjects (subjects; [3]): (22.3) % | Injection site pain, Number of Subjects (subjects; [3]): 84 | Injection site pruritus, (%) of Subjects (subjects; [3]): (44.7) % | Injection site pruritus, Number of Subjects (subjects; [3]): 168 | Injection site swelling, (%) of Subjects (subjects; [3]): (13.8) % | Injection site swelling, Number of Subjects (subjects; [3]): 52 | Injection site urticaria, (%) of Subjects (subjects; [3]): (12.5) % | Injection site urticaria, Number of Subjects (subjects; [3]): 47 | injection site reactions (ISRs) reported, % of subjects (subjects; subjects receiving SQ elamipretide through clinical trials): 84.4% | reduction of Evans Blue accumulation in footpads in Mrgprb2 knockout mice ([2]; 0.5 mg/mL elamipretide, knockout vs wild type): 80% | Evans Blue accumulation in footpads ([2]; Mrgprb2 knockout mice, 0.5 mg/mL elamipretide): almost no Evans Blue accumulation | Evans Blue labeling in footpads ([2]; wild type mice, 5 μL of 0.5 mg/mL elamipretide injected in paw, vs saline): strong Evans Blue labeling | injection site reactions (non-human primates): generally not severe | Self-assessed Bruising, (%) of Reported Reactions (healthy subjects): (6.3) % | Self-assessed Bruising, Number of Reported Reactions (healthy subjects): 5 | Self-assessed Burning sensation, (%) of Reported Reactions (healthy subjects): (16.3) % | Self-assessed Burning sensation, Number of Reported Reactions (healthy subjects): 13 | Self-assessed Cold Sensation, Number of Reported Reactions (healthy subjects): 0.0 | Self-assessed Itching, (%) of Reported Reactions (healthy subjects): (20.0) % | Self-assessed Itching, Number of Reported Reactions (healthy subjects): 16 | Self-assessed Pain, (%) of Reported Reactions (healthy subjects): (13.8) % | Self-assessed Pain, Number of Reported Reactions (healthy subjects): 11 | Self-assessed Redness, (%) of Reported Reactions (healthy subjects): (30.0) % | Self-assessed Redness, Number of Reported Reactions (healthy subjects): 24 | Self-assessed Swelling, (%) of Reported Reactions (healthy subjects): (22.5) % | Self-assessed Swelling, Number of Reported Reactions (healthy subjects): 18
